Laboratory results: patent US20260373165A1, “PHARMACEUTICAL COMBINATIONS AND COMPOSITIONS, AND METHODS OF USE THEREOF” (SHENZHEN HIGHTIDE BIOPHARMACEUTICAL LTD., priority 2022, published 2026)
Entries after “also recorded” stand apart in the source; their conditions may differ.

What was measured:
Assay type in all cases: in vivo, mouse (C57BL/6J male, 60% HFD DIO)
[1] = Example 1: liver, abdominal and subcutaneous fat weight after 28 days; conditions: mean, HTD1801 200 mpk, empagliflozin 10 mpk in last 2 weeks (300/15 mpk before)
Excerpt: (§1) After 5-week-old C57BL/6J male mice were acclimatized for 1 week, the weight of each mouse was weighed, and the mice were randomly divided into a control group and a model group by taking the weight as a main index, where 12 mice in the control group were fed with common feed (CD), and the mice in the remaining model group were fed with 60% high-fat feed (60% HFD) for 10-12 weeks to construct a DIO obesity model, with the average body weight being not less than 40 g. The mice fed with 60% HFD were grabbed and acclimatized with a solvent for 3 days, where the acclimatization with a solvent was performed by oral gavage of 0.5% CMC-Na, twice daily.
(§2) The food intake, the body weight, the body fat ratio, and the insulin level of the mice were respectively measured, followed by fasting blood glucose level, and the mice were randomly grouped according to Table 3 by taking the body weight as an index, and the remaining ungrouped mice were euthanized. After grouping, each group of mice was administered according to Table 3, the day of administration was defined as DO, and the administration volume of each drug was determined based on the results obtained by the calculation of 5 μL/g× mouse body weight (g).
(§3) For the combined administration group, the total administration volume was the sum of the administration volumes of two single drugs, and the administration sequence and the administration time were kept consistent at each administration. The mice were continuously fed with high-fat feed during the administration period until the administration was finished. During administration, 2 food intakes were measured per week (difference in feed weights at an interval of 24 h was measured); each group of mice was weighed once daily; postprandial blood glucose levels were measured weekly; blood was collected from the tail tip on day 6 and day 20, respectively, so as to measure fasting blood glucose levels once (blood was collected after fasting from 8:00 am to […]); on day 25 of administration, the body fat ratio and the lean mass of each group of mice were measured by MRI (the measurement period was kept consistent with that before grouping); after 4 weeks of administration intervention (day 28), each group of mice was fasted for 6 h and subjected to OGTT (0 min, 15 min, 30 min, 60 min, 90 min, 120 min) to detect their blood glucose levels, and meanwhile subjected to blood sampling via submaxillary vein (0 min, 15 min, 30 min, about 30 μL of blood sampled each time), and then the blood plasma was separated for detecting the insulin level by ELISA, where the separated blood plasma was more than 10 μL; the next day (D29) at the end of administration was set as the test endpoint, and the mice were fasted for 6 h in the morning and subjected to fasting blood glucose level measurement; subsequently, the mice were euthanized with CO2, blood was collected from the heart of each mouse for analysis, and each group of mice was dissected; the liver and subcutaneous, epididymal and mesenteric fat was collected, photographed and weighed, respectively.
After 28 days of administration, the mice were euthanized with CO2 the next day, and the mice of groups G1 to G5 were dissected, and liver and abdominal fat (including epididymis and mesentery), and subcutaneous fat were collected, photographed and weighed, respectively, and the results are shown in Table 6 below, FIG. 6, FIG. 7, and FIG. 8.

[2] = Example 1: body fat mass by MRI after 25 days
Excerpt: as §1, §2, §3
After 25 days of administration, the body weight, the body fat mass and the body fat ratio of each animal in groups G1 to G6 were measured and averaged for each group, and the results are shown in Table 5 below, FIG. 4 and FIG. 5.

[3] = Example 1: oral glucose tolerance test (OGTT), blood glucose; conditions: for OGTT blood glucose level: HTD1801 200 mpk, empagliflozin 10 mpk (reduced after week 2), semaglutide 10 nmol/kg s.c. Q3D
Excerpt: as §1, §2, §3

[4] = Example 1: body weight and body weight change rate, combined administration of HTD1801 and empagliflozin in DIO obesity model; conditions: semaglutide 10 nmol/kg s.c. Q3D
Excerpt: as §1, §2, §3

[5] = Example 1: fasting blood glucose level; conditions: semaglutide 10 nmol/kg s.c. Q3D
Excerpt: as §1, §2
For the combined administration group, the total administration volume was the sum of the administration volumes of two single drugs, and the administration sequence and the administration time were kept consistent at each administration. The mice were continuously fed with high-fat feed during the administration period until the administration was finished. […]
After 20 days of administration, fasting blood glucose level results were measured for each group of animals and are shown in Table 8 below and FIG. 11.

[6] = mean, after 25 days of administration, HTD1801 200 mpk, empagliflozin 10 mpk in last 2 weeks (300/15 mpk before), semaglutide 10 nmol/kg s.c. Q3D
[7] = day 0 (baseline), HTD1801 300 mpk, empagliflozin 15 mpk gavage QD
[8] = day 1, HTD1801 300 mpk, empagliflozin 15 mpk gavage QD
[9] = day 2, HTD1801 300 mpk, empagliflozin 15 mpk gavage QD
[10] = day 3, HTD1801 300 mpk, empagliflozin 15 mpk gavage QD
[11] = day 4, HTD1801 300 mpk, empagliflozin 15 mpk gavage QD
[12] = day 5, HTD1801 300 mpk, empagliflozin 15 mpk gavage QD
[13] = day 6, HTD1801 300 mpk, empagliflozin 15 mpk gavage QD
[14] = day 7, HTD1801 300 mpk, empagliflozin 15 mpk gavage QD
[15] = day 8, HTD1801 300 mpk, empagliflozin 15 mpk gavage QD
[16] = day 9, HTD1801 300 mpk, empagliflozin 15 mpk gavage QD
[17] = day 10, HTD1801 300 mpk, empagliflozin 15 mpk gavage QD
[18] = day 11, HTD1801 300 mpk, empagliflozin 15 mpk gavage QD
[19] = day 12, HTD1801 300 mpk, empagliflozin 15 mpk gavage QD
[20] = day 13, HTD1801 300 mpk, empagliflozin 15 mpk gavage QD
[21] = day 14, HTD1801 300 mpk, empagliflozin 15 mpk gavage QD
[22] = day 15, HTD1801 200 mpk, empagliflozin 10 mpk (reduced after week 2) gavage QD
[23] = day 16, HTD1801 200 mpk, empagliflozin 10 mpk (reduced after week 2) gavage QD
[24] = day 17, HTD1801 200 mpk, empagliflozin 10 mpk (reduced after week 2) gavage QD
[25] = day 18, HTD1801 200 mpk, empagliflozin 10 mpk (reduced after week 2) gavage QD
[26] = day 19, HTD1801 200 mpk, empagliflozin 10 mpk (reduced after week 2) gavage QD
[27] = day 20, HTD1801 200 mpk, empagliflozin 10 mpk (reduced after week 2) gavage QD
[28] = day 21, HTD1801 200 mpk, empagliflozin 10 mpk (reduced after week 2) gavage QD
[29] = day 22, HTD1801 200 mpk, empagliflozin 10 mpk (reduced after week 2) gavage QD
[30] = day 23, HTD1801 200 mpk, empagliflozin 10 mpk (reduced after week 2) gavage QD
[31] = day 24, HTD1801 200 mpk, empagliflozin 10 mpk (reduced after week 2) gavage QD
[32] = day 25, HTD1801 200 mpk, empagliflozin 10 mpk (reduced after week 2) gavage QD
[33] = day 26, HTD1801 200 mpk, empagliflozin 10 mpk (reduced after week 2) gavage QD
[34] = day 27, HTD1801 200 mpk, empagliflozin 10 mpk (reduced after week 2) gavage QD
[35] = day 28, HTD1801 200 mpk, empagliflozin 10 mpk (reduced after week 2) gavage QD

## OC[C@H]1O[C@@H](c2ccc(Cl)c(Cc3ccc(O[C@H]4CCOC4)cc3)c2)[C@H](O)[C@@H](O)[C@@H]1O [Empagliflozin, empagliflozin]
[1]
  Epididymal fat weight: 2.82 g
  Liver weight: 1.34 g
  Mesenteric fat weight: 1.20 g
  Subcutaneous fat weight: 3.02 g
[2]; after 25 days, relative to control group G2
  body fat mass and body fat ratio (in words): increased
[2]; mean, after 25 days of administration (Table 5), HTD1801 200 mpk, empagliflozin 10 mpk in last 2 weeks (300/15 mpk before), semaglutide 10 nmol/kg s.c. Q3D
  Body weight: 47.53 g
[2]; [6]
  Body fat ratio: 49.13%
  Fat (body fat mass): 23.36 g
[3]; day 28, 0 min
  OGTT blood glucose level: 10.97 mmol/L
[3]; day 28, 15 min
  OGTT blood glucose level: 19.60 mmol/L
[3]; day 28, 30 min
  OGTT blood glucose level: 18.90 mmol/L
[3]; day 28, 60 min
  OGTT blood glucose level: 18.18 mmol/L
[3]; day 28, 90 min
  OGTT blood glucose level: 14.54 mmol/L
[3]; day 28, 120 min (head printed "12 0min")
  OGTT blood glucose level: 15.48 mmol/L
[3]; day 28, relative to model control group G2
  total blood glucose level in OGTT (in words): comparable
[4]; after 14 days, reduced dose: HTD1801 200 mpk, empagliflozin 10 mpk
  body weight change (in words): slowly increased
[4]; [7]
  Body weight (mean): 42.9 g
  Body weight change rate: 0.0%
[4]; [8]
  Body weight (mean): 42.8 g
  Body weight change rate: −0.2%
[4]; [9]
  Body weight (mean): 42.9 g
  Body weight change rate: 0.1%
[4]; [10]
  Body weight (mean): 42.8 g
  Body weight change rate: −0.1%
[4]; [11]
  Body weight (mean): 42.9 g
  Body weight change rate: 0.0%
[4]; [12]
  Body weight (mean): 43.0 g
  Body weight change rate: 0.4%
[4]; [13]
  Body weight (mean): 42.9 g
  Body weight change rate: 0.1%
[4]; [14]
  Body weight (mean): 42.6 g
  Body weight change rate: −0.5%
[4]; [15]
  Body weight (mean): 42.7 g
  Body weight change rate: −0.4%
[4]; [16]
  Body weight (mean): 43.1 g
  Body weight change rate: 0.5%
[4]; [17]
  Body weight (mean): 43.2 g
  Body weight change rate: 0.8%
[4]; [18]
  Body weight (mean): 43.3 g
  Body weight change rate: 1.1%
[4]; [19]
  Body weight (mean): 43.7 g
  Body weight change rate: 1.9%
[4]; [20]
  Body weight (mean): 43.6 g
  Body weight change rate: 1.8%
[4]; [21]
  Body weight (mean): 43.7 g
  Body weight change rate: 2.0%
[4]; [22]
  Body weight (mean): 43.5 g
  Body weight change rate: 1.5%
[4]; [23]
  Body weight (mean): 43.8 g
  Body weight change rate: 2.3%
[4]; [24]
  Body weight (mean): 44.1 g
  Body weight change rate: 2.9%
[4]; [25]
  Body weight (mean): 44.5 g
  Body weight change rate: 3.9%
[4]; [26]
  Body weight (mean): 44.8 g
  Body weight change rate: 4.4%
[4]; [27]
  Body weight (mean): 45.1 g
  Body weight change rate: 5.2%
[4]; [28]
  Body weight (mean): 45.5 g
  Body weight change rate: 6.2%
[4]; [29]
  Body weight (mean): 46.0 g
  Body weight change rate: 7.3%
[4]; [30]
  Body weight (mean): 46.4 g
  Body weight change rate: 8.3%
[4]; [31]
  Body weight (mean): 46.5 g
  Body weight change rate: 8.5%
[4]; [32]
  Body weight (mean): 46.5 g
  Body weight change rate: 8.4%
[4]; [33]
  Body weight (mean): 46.3 g
  Body weight change rate: 8.1%
[4]; [34]
  Body weight (mean): 46.7 g
  Body weight change rate: 8.9%
[4]; [35]
  Body weight (mean): 46.5 g
  Body weight change rate: 8.4%
[4]; within 14 days, HTD1801 300 mpk, empagliflozin 15 mpk gavage QD
  body weight change / weight loss effect (in words): basically unchanged in week 1 and gradually increased; also recorded: could not achieve the weight loss effect
[5]; [13]
  Mean fasting blood glucose level: 7.8 mmol/L
[5]; day 20, HTD1801 200 mpk, empagliflozin 10 mpk (reduced after week 2)
  Mean fasting blood glucose level: 7.9 mmol/L
